Results: patent US20120125325A1, “THE USE OF AMLEXANOX IN THE THERAPY OF NEUTROPHIL-DRIVEN DISEASES” (priority 2009, published 2012)

Legend:
[1] = test system: LPS-induced neutrophilia in the airways of mice; test: LPS-induced airway neutrophilia in mice, oral amlexanox (Example 1); type: in vivo; details: amlexanox 1-30 mg/kg p.o. 1 hour before LPS aerosol, BALF 8 hours after LPS
Experimental: • n=8 • Group 1—sham (control) • Group 2—Vehicle (10% DMSO, p.o.) • Group 3—amlexanox (1 mg/kg, p.o.) • Group 4—amlexanox (3 mg/kg, p.o.) • Group 5—amlexanox (10 mg/kg, p.o.) • Group 6—amlexanox (30 mg/kg, p.o.) • Group 7—dexamethasone (1 mg/ml) • p.o.=per orus (orally)
N.B. All test compounds were administered via oral gavage using a ball tipped stainless steel delivery cannulae or via intra-tracheal dosing (using a PennCentury devise). In all cases this was 1 hour before endotoxin exposure.
In all cases the cells were counted blind using oil immersion microscopy.
Amlexanox dosed via oral gavage was administered in a dose volume of 0.1 ml using a ball tipped stainless steel delivery cannule.

[2] = test system: LPS-induced neutrophilia in the airways of mice; test: LPS-induced airway neutrophilia in mice, inhaled (intra-tracheal) dosing (Example 2); details: for piloerection following LPS aerosol exposure: also seen in vehicle treated animals; for tolerance of dosing: mouse, in vivo
Experimental: • n=8 • Group 1—sham • Group 2—vehicle (10% DMSO) • Group 3—amlexanox (0.3 mg/mL) • Group 4—amlexanox (3 mg/mL) • Group 5—amlexanox (10 mg/mL) • Group 6—amlexanox (15 mg/mL) • Group 7—salbutamol (1 mg/mL) • Group 8—amlexanox (0.3 mg/mL)+salbutamol (1 mg/mL) • Group 9—amlexanox (3 mg/mL)+salbutamol (1 mg/mL) • Group 10—dexamethasone (1.0 mg/mL) • Group 11—fluticasone (1.0 mg/mL) • N.B. All test compounds to be administered by intra-tracheal dosing (using a PennCentury device) 1 hour before endotoxin exposure.
Non-fasted mice were weighed, individually identified on the tail with a permanent marker and administered by intra tracheal administration with doses of either vehicle, amlexanox, fluticasone, dexamethasone or salbutamol at time point T=−1 with respect to the start of LPS treatment (see above for group details). At T=0, mice were placed into an exposure chamber and exposed to LPS. The LPS was prepared in a solution of 0.5 mg/ml and aerosolised using a De Vibliss ultrasonic nebuliser 2000, so that 7 ml of the solution was aerosolised during the 30 min exposure period.
8 hours after LPS challenge the trachea was cannulated and BALF extracted. The procedure for this involved infusing and withdrawing 1 mL of PBS into the lungs via a tracheal catheter. This procedure was repeated to give a yield of approximately 2 mL lavage fluid. The BALF was aliquoted for analysis of neutrophilia and the remaining BALF stored at −80° C. for future cytokine analysis if required.
Total and differential white cell counts in the BAL fluid samples were measured using a Neubaur haemocytometer. Cytospin smears of the BAL fluid samples were prepared by centrifugation at 1200 rpm for 1 min at room temperature and stained using a DiffQuik stain system (Dade Behring).
Cells were counted blind using oil immersion microscopy.
Data were reported as total and differential number of cells per mL of BALF, mean±S.E.M. (standard error of the mean).
Inter-group deviations were statistically analysed by a one-way analysis of variance (ANOVA). In the case of significant difference in the mean values among the different levels of treatment, comparisons versus the vehicle group were carried out using the Dunnett's test. In case the equal variance test fails, a Kruskal-Wallis one-way analysis of variance on ranks followed by a Dunn's test were used. p<0.05 will be considered statistically significant.
Test compounds were administered in a dose volume of 20 μL using a FMJ-250 PennCentury device for intra-tracheal dosing.

[3] = Bronchodilator effect
[4] = test system: leukotriene B4; details: Taniguchi et al, 1990, and Kimishoto et al, 2006; cited from earlier work

Structure (SMILES) | inhibition of LPS-induced neutrophilia (cells in bronchoalveolar lavage fluid, FIG. 1) [1] | piloerection following LPS aerosol exposure ([2]; mice) | inhibition of neutrophilia (total cells and neutrophils in bronchoalveolar lavage fluid, FIGS. 2 to 6) ([2]; mice, amlexanox 0.3-15 mg/mL, 20 μL intra-tracheal 1 hour before LPS aerosol, BALF 8 hours after LPS) | tolerance of dosing [2] | effect as a bronchodilator [3] | LTB4 production [4]
CC(C)c1ccc2oc3nc(N)c(C(=O)O)cc3c(=O)c2c1 [amlexanox] | effective at inhibiting LPS-induced neutrophilia | noticeable degree of piloerection | inhibits neutrophilia | good tolerance of dosing | little or no effect as a bronchodilator | increase LTB4 production
C[C@@H]1C[C@H]2[C@@H]3CCC4=CC(=O)C=C[C@]4(C)[C@@]3(F)[C@@H](O)C[C@]2(C)[C@@]1(O)C(=O)CO [dexamethasone] | – | noticeable degree of piloerection | – | good tolerance of dosing | – | –
C[C@@H]1C[C@H]2[C@@H]3C[C@H](F)C4=CC(=O)C=C[C@]4(C)[C@@]3(F)[C@@H](O)C[C@]2(C)[C@@]1(O)C(=O)SCF [fluticasone] | – | noticeable degree of piloerection | – | good tolerance of dosing | – | –
CC(C)(C)NCC(O)c1ccc(O)c(CO)c1 (stereo not drawn) [salbutamol] | – | noticeable degree of piloerection | – | good tolerance of dosing | – | –
